The text below walks through data of patent US20230130134A1, “METHOD OF TREATING VIRAL INFECTIONS WITH HEXOSE TYPE MONOSACCHARIDES AND ANALOGS THEREOF” (Board of Regents, The University of Texas System, priority 2020, published 2023).

The nature of this series: Tissue distribution of tritium-labeled WP1122 and 2-DG in lungs after intravenous administration (liquid scintillation counting). The format is in vivo. Particulars: male Sprague-Dawley rats; for Detection of 2-DG and metabolites in lungs: i.v., 15, 30, 60 min, 6 and 24 hours post-dose. On the procedure: Experimental procedures. The pharmacokinetic and tissue organ distribution of WP1122 and 2-DG labeled with tritium was analyzed in male Sprague-Dawley rats. Animals (n=3 per timepoint) were dosed intravenously with 2-DG or WP1122 at equimolar dose 0.2 and 0.13 g/kg for WP1122 and 2-DG respectively. The animals were euthanized at 15, 30, 60 min and 6- and 24-hours post-dose. The organs were extracted, rinsed with PBS and radioactivity was measured using Liquid Scintillation Counting (LCS).

`OC[C@H]1OC(O)C[C@@H](O)[C@@H]1O` (stereo partly drawn) [Example 2-DG, (4R,5S,6R)-6-(hydroxymethyl)tetrahydro-2H-pyran-2,4,5-triol, reference compound]: the “Detection of 2-DG and metabolites in lungs” value was “detected in lungs in all tested time-points”.

On to `CC(=O)OC[C@H]1OC(O)C[C@@H](OC(C)=O)[C@@H]1O` (stereo partly drawn) [WP1122, ((2R,3S,4R)-4-acetoxy-3,6-dihydroxytetrahydro-2H-pyran-2-yl)methyl acetate], for which the “Detection of 2-DG and metabolites in lungs” value was “detected in lungs in all tested time-points”. Besides, the “Presence of metabolites in lungs compared with 2-DG administration” value (i.v., all time points including 24 hours after administration) is given as “Increased presence of metabolites”. For the setting “i.v., equimolar 0.2 g/kg WP1122 vs 0.13 g/kg 2-DG, 15 min post injection”, the “Highest concentration of radiolabeled compounds in lungs relative to radioactivity from 2-DG administration” value is recorded as “nearly three times higher”.
